One compound from US11090395B2, “Composition for cross talk between estrogen receptors and cannabinoid receptors” (SeeCure Taiwan Co., Ltd., priority 2018, dated 2021) can be followed below.

The data set relates to lymphoma cells (mantle cell lines and DLBCL cell lines). In words: In vitro anti-cancer cell viability assay in lymphoma cell lines. Format: cell-based. As to the method: Effect of Composition SC-05-L-1 and Composition SC-05-K-1 against lymphoma cells was assessed by using cell viability assays in representative mantle cell lines and diffuse large B-cell lymphoma (DLBCL) cell lines. The cells were treated with increasing concentration of Compound SC-05-L-1 and Compound SC-05-K-1. Representative DLBCL cell lines sensitive or less sensitive to Compound SC-05-L-1 and Compound SC-05-K-1 were compared.

Turning to `CCN(CC)CCOc1ccc(/C(=C(/CCCOCC(O)CN2CCCNCCNCCCNCC2)c2ccccc2)c2ccccc2)cc1.Cl` [SC-05-L-1, (Z)-1-(1,4,8,11-tetraazacyclotetradecan-1-yl)-3-((5-(4-(2-(diethylamino)ethoxy)phenyl)-4,5-diphenylpent-4-en-1-yl)oxy)propan-2-ol hydrochloride salt], the “anti-cancer effect against lymphoma cells” value (increasing concentration (FIG. 7A, 7B)) is given as “dose-dependent manner against lymphoma cells”. The relative toxicity result (lymphoma cells, cyclam versus cyclen chelator (FIG. 8A, 8B)) was “less toxic than Compound SC-05-K-1”.
